The values that follow come from PMC5421785, “Citrullination only infrequently impacts peptide binding to HLA class II MHC” (PLoS ONE, 2017).

Read-outs that look alike come from different tables or passages of the source. Square brackets hold non-standard residues; d marks the D form. Ends that are not written are not given here. Peptide text beside a SMILES is read from it. Cit = NC(=O)NCCC[C@H](N)C(=O)O

The target in test [1] is T1, HLA-DRB1*01:01 (Homo sapiens, UniProt P01903+P01911, A100R/D57E/F55L/F60I/F76Y/I96L/L162R/M171V/P40L/Q125E/R42F/V115G/Y59C).
T1 construct: EBV transformed homozygous cell lines were used as sources of MHC molecules; endogenous in cells; host or cells: EBV transformed homozygous cell lines
The experiment in a line: HLA class II peptide binding, inhibition of radiolabeled peptide binding to purified MHC.

Test [2] deals with T2, HLA-DRB1*04:01 (Homo sapiens, UniProt P01903+P01911, A100K/A169T/F76Y/I96L/K127E/L162R/M171V/N62H/P40V/Q125Y/R42H/S133A/S149N/S66Y/V115G/V209L/W38E).
T2 construct: EBV transformed homozygous cell lines were used as sources of MHC molecules; endogenous in cells; host or cells: EBV transformed homozygous cell lines
Described as above.

Setting [3] is: citrullinated 15-mer peptide (X = citrulline), purified HLA-DRB1*01:01, read-out: DRB1*01:01 binding capacity, Cit peptide (IC50 nM).
The mark [4] stands for this setting: ratio of WT IC50 to Cit IC50, >1 = citrullination increases binding.
[5] abbreviates: citrullinated 15-mer peptide (X = citrulline), purified HLA-DRB1*04:01, read-out: DRB1*04:01 binding capacity, Cit peptide (IC50 nM).
Setting [6] is: read-out: DRB1*01:01 binding capacity, WT peptide (IC50 nM).
Where [7] appears, read: read-out: DRB1*04:01 binding capacity, WT peptide (IC50 nM).
Setting [8] is: citrullinated peptide as listed (X at Cit position), read-out: DRB1*01:01 binding capacity Cit peptide (IC50 nM).
Where [9] appears, read: citrullinated peptide as listed (X at Cit position), read-out: DRB1*04:01 binding capacity Cit peptide (IC50 nM).
[10] abbreviates: wild-type (unmodified Arg) 15-mer peptide, purified HLA-DRB1*01:01, read-out: DRB1*01:01 binding capacity, WT peptide (IC50 nM).
[11] abbreviates: wild-type (unmodified Arg) 15-mer peptide, purified HLA-DRB1*04:01, read-out: DRB1*04:01 binding capacity, WT peptide (IC50 nM).
[12] abbreviates: citrullinated 15-mer (X), purified MHC, inhibition of radiolabeled peptide binding, dash = IC50 >40,000 nM, read-out: DRB1*01:01 binding capacity, Cit peptide (IC50 nM).
Where [13] appears, read: citrullinated 15-mer (X), purified MHC, inhibition of radiolabeled peptide binding, dash = IC50 >40,000 nM, read-out: DRB1*04:01 binding capacity, Cit peptide (IC50 nM).

As a reminder, the IC50 is the point on the concentration scale where inhibition reaches its midpoint.

Regarding `C[C@H](NC(=O)CNC(=O)[C@@H]1CCCN1C(=O)[C@H](CO)NC(=O)CNC(=O)[C@H](CCC(=O)O)NC(=O)[C@@H](N)CCCNC(=N)N)C(=O)N[C@@H](CC(=O)O)C(=O)NCC(=O)N1CCC[C@H]1C(=O)N1CCC[C@H]1C(=O)NCC(=O)N[C@@H](CCCNC(N)=O)C(=O)N[C@@H](CC(=O)O)C(=O)NCC(=O)O` [REGSPGADGPPGXDG] (H-REGSPGADGPPG[Cit]DG-OH; N-terminus and C-terminus assumed), the IC50 in test [1] (setting [3]) and in test [2] (setting [5]) was more than 40000 nM in each case. In addition, the “DRB1*01:01 binding capacity, WT/cit ratio” value in test [1] (setting [4]) amounted to 1.0. Moreover, the “DRB1*04:01 binding capacity, WT/cit ratio” value in test [2] (setting [4]) came to 1.0.

In the case of `CC(C)C[C@H](NC(=O)CNC(=O)[C@@H]1CCCN1)C(=O)N[C@@H](CCCNC(N)=O)C(=O)NCC(=O)N[C@@H](CC(C)C)C(=O)N1CCC[C@H]1C(=O)NCC(=O)N[C@@H](CCCCN)C(=O)N[C@@H](CC(=O)O)C(=O)NCC(=O)N[C@@H](CCC(=O)O)C(=O)N[C@H](C(=O)NCC(=O)N[C@@H](C)C(=O)O)[C@@H](C)O` [PGLXGLPGKDGETGA] (H-PGL[Cit]GLPGKDGETGA-OH), the values for the IC50 in test [1] (setting [3]) and in test [2] (setting [5]) were 109 nM and more than 40000 nM, respectively.

For REEAENTLQSFRQDV [Vimentin 196 WT], the IC50 was determined as 6560 nM in test [1] (setting [6]) and 6010 nM in test [2] (setting [7]).

YKSKFADLSEAANRN [Vimentin 291 WT]: the IC50 was determined as 394 nM in test [1] (setting [6]) and 953 nM in test [2] (setting [7]).

For `CSCC[C@H](NC(=O)[C@H](Cc1ccc(O)cc1)NC(=O)[C@H](CCC(N)=O)NC(=O)[C@H](CC(C)C)NC(=O)[C@@H]1CCCN1C(=O)[C@H](CC(=O)O)NC(=O)[C@@H]1CCCN1C(=O)CNC(=O)[C@@H](N)CCCCN)C(=O)N[C@@H](CCCNC(N)=O)C(=O)N[C@@H](C)C(=O)N[C@@H](CC(=O)O)C(=O)N[C@@H](CCC(N)=O)C(=O)N[C@@H](C)C(=O)N[C@@H](C)C(=O)O` [KGPDPLQYMXADQAA] (H-KGPDPLQYM[Cit]ADQAA-OH), the half-inhibitory concentration (IC50) in test [1] (setting [8]) is 9.2 nM; in test [2] (setting [9]) it was 45 nM.

Consider DIMRLREKLQEEMLQ [Vimentin 181 WT], for which the results for the half-inhibitory concentration (IC50) in test [1] (setting [6]) and in test [2] (setting [7]) were 852 nM and more than 40000 nM, respectively.

For TIGRLQDEIQNMKEE [Vimentin 361 WT], the IC50 in test [1] (setting [10]) is 13700 nM; in test [2] (setting [11]) it was 21800 nM.

Take SAFAGLGPREKGPDP [Collagen 1221 WT]: the half-maximal inhibitory concentration (IC50) in test [1] (setting [10]) was 50 nM; in test [2] (setting [11]), more than 40000 nM.

As to `CC(C)C[C@H](NC(=O)[C@H](CCCNC(N)=O)NC(=O)[C@H](CO)NC(=O)[C@H](CCCCN)NC(=O)CNC(=O)[C@H](CCC(N)=O)NC(=O)CNC(=O)[C@H](CCCCN)NC(=O)[C@H](CC(C)C)NC(=O)[C@H](CCC(N)=O)NC(=O)[C@@H](N)CCC(=O)O)C(=O)NCC(=O)N[C@@H](CC(=O)O)C(=O)N[C@@H](CC(C)C)C(=O)N[C@@H](Cc1ccc(O)cc1)C(=O)O` [EQLKGQGKSXLGDLY], the IC50 was 5380 nM in test [1] (setting [12]) and more than 40000 nM in test [2] (setting [13]).

In the case of `CC[C@H](C)[C@H](N)C(=O)N[C@@H](CCCNC(=N)N)C(=O)N[C@@H](C)C(=O)N[C@@H](CCC(=O)O)C(=O)NCC(=O)N[C@@H](CC(N)=O)C(=O)N[C@@H](CO)C(=O)N[C@@H](CCCNC(N)=O)C(=O)N[C@@H](Cc1ccccc1)C(=O)N[C@H](C(=O)N[C@@H](Cc1ccc(O)cc1)C(=O)N[C@H](C(=O)N[C@@H](C)C(=O)N[C@@H](CC(C)C)C(=O)N[C@@H](CCCCN)C(=O)O)[C@@H](C)O)[C@@H](C)O` [IRAEGNSXFTYTALK] (H-IRAEGNS[Cit]FTYTALK-OH), the IC50 in test [1] (setting [8]) turned out to be 0.6 nM; in test [1] (value of the wild-type (non-citrullinated) counterpart of the listed peptide, read-out: DRB1*01:01 binding capacity WT peptide (IC50 nM)), 1.3 nM; in test [2] (setting [9]) it was 849 nM.

For `CC(C)C[C@H](NC(=O)[C@H](CO)NC(=O)[C@H](C)NC(=O)[C@H](CC(N)=O)NC(=O)[C@@H](N)CC(=O)O)C(=O)N[C@@H](C)C(=O)N[C@@H](CCCNC(=N)N)C(=O)N[C@@H](CC(C)C)C(=O)N[C@@H](CC(=O)O)C(=O)N[C@@H](CC(C)C)C(=O)N[C@@H](CCC(=O)O)C(=O)N[C@@H](CCCNC(N)=O)C(=O)N[C@@H](CCCCN)C(=O)N[C@H](C(=O)N[C@@H](CCC(=O)O)C(=O)O)C(C)C` [DNASLARLDLEXKVE] (H-DNASLARLDLE[Cit]KVE-OH), the IC50 in test [1] (setting [12]) was 10900 nM; in test [2] (setting [13]), more than 40000 nM.
